Among the test systems are ACHN; CAKI-1; CCRF-CEM; HCT-116; HCT-15; HOP-62; MOLT-4; NCI-H23; NCI-H460; OVCAR-3; OVCAR-8; RXF 393; SF-295; SN12C; SNB-19; TK-10; 786-0; K562; UACC-257; LOX IMVI.
What all share (experiment): NCI-60 cell line screen, 48 h

The record followed here is ChEMBL document CHEMBL1201862, “PubChem BioAssay data set” (2004).

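A five-concentration, 48-hour dose response in 96-well plates underlies each endpoint, interpolated linearly between surrounding concentrations. GI50 = concentration required for 50% inhibition of growth.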 Activity calls are given as the source filed them. No stated cut-off is given here; in the data, active = GI50 up to about 1.1 µM and inactive = higher.

`CC1=C2c3ccccc3N(C(=O)/C=C/C(=O)O)[C@H]2[C@H]2C(=O)OC(=O)[C@H]2C1`: the GI50 with ACHN was > 10 µM (inactive); in the assay on CAKI-1, > 10 µM (inactive); in the assay on CCRF-CEM, > 10 µM (inactive); in the assay with HCT-116, > 10 µM (inactive); with HCT-15, more than 10 µM; in the assay with HOP-62 it was > 10 µM (inactive). Further, the GI50 with MOLT-4, in the assay with NCI-H23, in the assay on NCI-H460, with OVCAR-3, in the assay on OVCAR-8 and with RXF 393 was > 10 µM (inactive) in each case. Besides, the GI50 in the assay on SF-295, in the assay on SN12C, in the assay with SNB-19 and in the assay with TK-10 was > 10 µM (inactive) each time.

For `CN(C)CC(CO)(CN(C)C)CN(C)C`, the GI50 in the assay with 786-0 is > 100 µM (inactive); with ACHN, > 100 µM (inactive); in the assay on CAKI-1, > 100 µM (inactive); in the assay on CCRF-CEM, > 100 µM (inactive); in the assay with HCT-116, > 100 µM (inactive); with HCT-15, more than 100 µM. The GI50 in the assay on HOP-62, in the assay with K562, with MOLT-4, with NCI-H23, in the assay on NCI-H460 and in the assay with OVCAR-3 was > 100 µM (inactive) in each case. In addition, the GI50 with OVCAR-8, in the assay with RXF 393, in the assay on SF-295, in the assay with SN12C, in the assay with SNB-19 and in the assay on TK-10 was > 100 µM (inactive) each time. Further, the GI50 in the assay with UACC-257 is > 100 µM (inactive).

Turning to `N/C(=N\O)N/N=C/c1cc2c(cc1Cl)OCO2`, the GI50 is 37.5 µM (inactive) in the assay on CAKI-1; 27 µM (inactive) in the assay with CCRF-CEM; 51.5 µM (inactive) with HCT-116; 13.7 µM in the assay on HCT-15; 36.3 µM (inactive) in the assay on HOP-62; 26.1 µM (inactive) in the assay with K562. In addition, the GI50 with LOX IMVI was 31.5 µM (inactive); in the assay on MOLT-4 it was 39 µM (inactive); in the assay with NCI-H23 it was 58.1 µM (inactive); in the assay on NCI-H460, 34.1 µM (inactive); with OVCAR-8 it was 40.6 µM (inactive); in the assay on RXF 393 it was 38.4 µM (inactive). For the same molecule, the GI50 in the assay on SF-295 is 22.9 µM (inactive); in the assay with SN12C it was 59 µM (inactive); in the assay with SNB-19, > 25.8 µM (inactive); with UACC-257, 42.3 µM (inactive).

Turning to `O=C(NC1CCCCC1)NC12CC3CC(CC(F)(C3)C1)C2`, the GI50 with 786-0, in the assay with ACHN, in the assay with CCRF-CEM, in the assay on HCT-116, with HOP-62 and with K562 was > 100 µM (inactive) throughout. For the same molecule, the GI50 in the assay on LOX IMVI, in the assay with MOLT-4, in the assay on NCI-H23, with NCI-H460, in the assay with OVCAR-3 and in the assay on OVCAR-8 was > 100 µM (inactive) in each case. In addition, the GI50 with RXF 393 is > 100 µM (inactive); with SNB-19, > 100 µM (inactive); in the assay on TK-10, 85.3 µM (inactive); in the assay with UACC-257, > 100 µM (inactive).

As to `c1ccc(C2N3CCCCC3[C@@H]3c4[nH]c5ccccc5c4CCN23)cc1` (stereo partly drawn), the GI50 in the assay with 786-0 was > 100 µM (inactive); in the assay on ACHN, > 100 µM (inactive); with CAKI-1, > 100 µM (inactive); in the assay with CCRF-CEM, 28.6 µM (inactive); with HCT-116, 64 µM (inactive); in the assay on HCT-15 it was more than 100 µM. Also, the GI50 in the assay with HOP-62 is > 100 µM (inactive); in the assay on K562 it was 41.4 µM (inactive); with MOLT-4, 41.2 µM (inactive); in the assay on NCI-H23, > 100 µM (inactive); in the assay on NCI-H460 it was 48.8 µM (inactive); with OVCAR-3 it was > 100 µM (inactive). Further, the GI50 in the assay on OVCAR-8 is > 100 µM (inactive); in the assay on RXF 393, 47.3 µM (inactive); in the assay with SF-295 it was > 100 µM (inactive); with SN12C it was > 100 µM (inactive); in the assay with SNB-19 it was > 100 µM (inactive); with TK-10 it was > 100 µM (inactive). For the same molecule, the GI50 with UACC-257 was > 100 µM (inactive).

Take `Clc1cc(Cl)cc(C2SCc3nc4ccccc4n32)c1` (stereo not drawn): the GI50 in the assay on 786-0 is 15.6 µM (inactive); in the assay on ACHN, 22.9 µM (inactive); with CAKI-1, 14.9 µM (inactive); in the assay on CCRF-CEM, 9.79 µM (inactive); in the assay with HCT-116, > 10 µM (inactive); in the assay on K562, 3.82 µM (inactive). Further, the GI50 is 11.7 µM (inactive) in the assay with MOLT-4; 17 µM (inactive) in the assay on NCI-H23; 14.3 µM (inactive) with NCI-H460; 16.9 µM (inactive) in the assay with OVCAR-3; 17 µM (inactive) in the assay on OVCAR-8; 14.6 µM (inactive) in the assay with RXF 393. Also, the GI50 is 14.5 µM (inactive) in the assay on SF-295; 15.2 µM (inactive) with SN12C; 20.7 µM (inactive) in the assay with SNB-19; 27.7 µM (inactive) with TK-10; 15.2 µM (inactive) with UACC-257.

As for `CC1(CO)COS(=O)OC1` (stereo not drawn), the GI50 in the assay with ACHN is > 100 µM (inactive); in the assay on CCRF-CEM, > 100 µM (inactive); in the assay on HCT-116, > 100 µM (inactive); with HCT-15 it was more than 100 µM; in the assay on LOX IMVI it was > 100 µM (inactive); with MOLT-4 it was > 100 µM (inactive). The GI50 with NCI-H23, in the assay with NCI-H460, in the assay with OVCAR-3, in the assay with OVCAR-8, in the assay on RXF 393 and in the assay on SF-295 was > 100 µM (inactive) in each case. The GI50 with SN12C, in the assay on SNB-19, in the assay with TK-10 and in the assay with UACC-257 was > 100 µM (inactive) in each case.

With `N#CCCN(CCN(CCC#N)C(=O)Nc1ccccc1)C(=O)Nc1ccccc1`, the GI50 is 75.5 µM (inactive) in the assay with 786-0; > 100 µM (inactive) in the assay on ACHN; > 100 µM (inactive) in the assay with CCRF-CEM; 49.3 µM (inactive) in the assay with HCT-116; more than 100 µM with HCT-15; 20.8 µM (inactive) with HOP-62. Besides, the GI50 in the assay on K562 is > 100 µM (inactive); in the assay with LOX IMVI it was > 100 µM (inactive); in the assay with MOLT-4, > 100 µM (inactive); in the assay with NCI-H23 it was 61.4 µM (inactive); with NCI-H460, 68.5 µM (inactive); in the assay with OVCAR-8, 57.5 µM (inactive). Also, the GI50 with RXF 393 was 24.4 µM (inactive); in the assay with SF-295 it was 31.8 µM (inactive); in the assay with SN12C it was > 100 µM (inactive); in the assay on SNB-19, 32.7 µM (inactive); in the assay on TK-10, > 100 µM (inactive); in the assay with UACC-257, > 100 µM (inactive).

In the case of `Cc1c2c(cc3c1[nH]c1ccccc13)C(c1ccc(Cl)cc1)=NCC2`, the GI50 was 0.433 µM (active) in the assay with CCRF-CEM; 0.542 µM (active) in the assay with HCT-116; 0.416 µM in the assay with HCT-15; 0.738 µM (active) in the assay with HOP-62; 0.328 µM (active) in the assay with K562; 0.424 µM (active) with LOX IMVI. Besides, the GI50 in the assay on MOLT-4 was 0.426 µM (active); in the assay with NCI-H23, 0.368 µM (active); with NCI-H460, 0.267 µM (active); in the assay with OVCAR-3, 0.29 µM (active); with OVCAR-8, 0.804 µM (active); with RXF 393, 0.465 µM (active). For the same molecule, the GI50 in the assay on SF-295 was 0.255 µM (active); in the assay with SN12C it was 0.244 µM (active); in the assay with SNB-19, 0.355 µM (active); in the assay on UACC-257 it was 0.621 µM (active).
